Data reported in patent US20260262643A1, “HERBICIDAL BENZOXAZINES” (FMC CORPORATION, priority 2022, published 2026).

Key:
blackgrass [1] = assay: Test A postemergence; type: in vivo, Alopecurus myosuroides; settings: postemergence, 10 days; for Blackgrass plant response rating: 125 g ai/ha, 0 to 100 scale, 0 no effect, 100 complete control; for Plant response rating, Blackgrass: 500 g ai/ha, visual injury, 0 to 100 scale (0 no effect, 100 complete control)
Procedure, shortened: (§1)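 Weeds and crops in loam–sand blend were sprayed preemergence onto soil or postemergence at 2–10 cm (one- to two-leaf stage). Test chemicals were in a non-phytotoxic solvent with surfactant. After 10 days in the greenhouse, injury was rated visually against untreated controls on a 0 (no effect) to 100 (complete control) scale.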

horseweed = assay: Test A postemergence; type: in vivo, Erigeron canadensis; settings: postemergence, 10 days; for Horseweed plant response rating: 125 g ai/ha, 0 to 100 scale, 0 no effect, 100 complete control; for Plant response rating, Horseweed: 500 g ai/ha, visual injury, 0 to 100 scale (0 no effect, 100 complete control)
Procedure, shortened: as §1

ryegrass, Italian [2] = assay: Test A postemergence; type: in vivo, Lolium multiflorum; settings: postemergence, 10 days; for Ryegrass, Italian plant response rating: 125 g ai/ha, 0 to 100 scale, 0 no effect, 100 complete control; for Plant response rating, Ryegrass, Italian: 500 g ai/ha, visual injury, 0 to 100 scale (0 no effect, 100 complete control)
Procedure, shortened: as §1

soybean [3] = assay: Test A postemergence; type: in vivo, Glycine max; settings: postemergence, 10 days; for Soybean plant response rating: 125 g ai/ha, 0 to 100 scale, 0 no effect, 100 complete control; for Plant response rating, Soybean: 500 g ai/ha, visual injury, 0 to 100 scale (0 no effect, 100 complete control)
Procedure, shortened: as §1

kochia [4] = assay: Test A postemergence; type: in vivo, Bassia scoparia; settings: postemergence, 10 days; for Kochia plant response rating: 125 g ai/ha, 0 to 100 scale, 0 no effect, 100 complete control; for Plant response rating, Kochia: 500 g ai/ha, visual injury, 0 to 100 scale (0 no effect, 100 complete control)
Procedure, shortened: as §1

pigweed, palmer [5] = assay: Test A postemergence; type: in vivo, Amaranthus palmeri; settings: postemergence, 10 days; for Pigweed, Palmer plant response rating: 125 g ai/ha, 0 to 100 scale, 0 no effect, 100 complete control; for Plant response rating, Pigweed, Palmer: 500 g ai/ha, visual injury, 0 to 100 scale (0 no effect, 100 complete control)
Procedure, shortened: as §1

ragweed [6] = assay: Test A postemergence; type: in vivo, Ambrosia artemisiifolia; settings: postemergence, 10 days; for Ragweed plant response rating: 125 g ai/ha, 0 to 100 scale, 0 no effect, 100 complete control; for Plant response rating, Ragweed: 500 g ai/ha, visual injury, 0 to 100 scale (0 no effect, 100 complete control)
Procedure, shortened: as §1

kochia [7] = assay: Test A preemergence; type: in vivo, Bassia scoparia
Procedure, shortened: as §1

oat, wild [8] = assay: Test A postemergence; type: in vivo, Avena fatua; settings: postemergence, 10 days; for Oat, Wild plant response rating: 125 g ai/ha, 0 to 100 scale, 0 no effect, 100 complete control; for Plant response rating, Oat, Wild: 500 g ai/ha, visual injury, 0 to 100 scale (0 no effect, 100 complete control)
Procedure, shortened: as §1

rice = assay: Test B flooded paddy test; type: in vivo, Oryza sativa; settings: 250 g ai/ha, Flood, 13 days, 0 to 100 scale (0 no effect, 100 complete control)
Procedure, shortened: (§2)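 2-leaf stage; pots flooded 3 cm over soil; compound dosed into paddy water; depth kept constant. Greenhouse, 13 d. Visual rating vs controls, 0 (no effect)–100 (complete control). Dash = no result.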

corn [9] = assay: Test A preemergence; type: in vivo, Zea mays
Procedure, shortened: as §1

galium = assay: Test A postemergence; type: in vivo, Galium aparine; settings: postemergence, 10 days; for Galium plant response rating: 125 g ai/ha, 0 to 100 scale, 0 no effect, 100 complete control; for Plant response rating, Galium: 500 g ai/ha, visual injury, 0 to 100 scale (0 no effect, 100 complete control)
Procedure, shortened: as §1

goosegrass [10] = assay: Test A preemergence; type: in vivo, Eleusine indica
Procedure, shortened: as §1

wheat [11] = assay: Test A postemergence; type: in vivo, Triticum aestivum; settings: postemergence, 10 days; for Wheat plant response rating: 125 g ai/ha, 0 to 100 scale, 0 no effect, 100 complete control; for Plant response rating, Wheat: 500 g ai/ha, visual injury, 0 to 100 scale (0 no effect, 100 complete control)
Procedure, shortened: as §1

wheat [12] = assay: Test A preemergence; type: in vivo, Triticum aestivum
Procedure, shortened: as §1

corn [13] = assay: Test A postemergence; type: in vivo, Zea mays; settings: postemergence, 10 days; for Corn plant response rating: 125 g ai/ha, 0 to 100 scale, 0 no effect, 100 complete control; for Plant response rating, Corn: 500 g ai/ha, visual injury, 0 to 100 scale (0 no effect, 100 complete control)
Procedure, shortened: as §1

soybean [14] = assay: Test A preemergence; type: in vivo, Glycine max
Procedure, shortened: as §1

ragweed [15] = assay: Test A preemergence; type: in vivo, Ambrosia artemisiifolia
Procedure, shortened: as §1

foxtail, giant [16] = assay: Test A postemergence; type: in vivo, Setaria faberi; settings: postemergence, 10 days; for Foxtail, Giant plant response rating: 125 g ai/ha, 0 to 100 scale, 0 no effect, 100 complete control; for Plant response rating, Foxtail, Giant: 500 g ai/ha, visual injury, 0 to 100 scale (0 no effect, 100 complete control)
Procedure, shortened: as §1

pigweed, palmer [17] = assay: Test A preemergence; type: in vivo, Amaranthus palmeri
Procedure, shortened: as §1

goosegrass [18] = assay: Test A postemergence; type: in vivo, Eleusine indica; settings: postemergence, 10 days; for Goosegrass plant response rating: 125 g ai/ha, 0 to 100 scale, 0 no effect, 100 complete control; for Plant response rating, Goosegrass: 500 g ai/ha, visual injury, 0 to 100 scale (0 no effect, 100 complete control)
Procedure, shortened: as §1

ducksalad = assay: Test B flooded paddy test; type: in vivo, Heteranthera limosa; settings: 250 g ai/ha, Flood, 13 days, 0 to 100 scale (0 no effect, 100 complete control)
Procedure, shortened: as §2

barnyardgrass = assay: Test B flooded paddy test; type: in vivo, Echinochloa crus-galli; settings: 250 g ai/ha, Flood, 13 days, 0 to 100 scale (0 no effect, 100 complete control)
Procedure, shortened: as §2

blackgrass [19] = assay: Test A preemergence; type: in vivo, Alopecurus myosuroides
Procedure, shortened: as §1

ryegrass, Italian [20] = assay: Test A preemergence; type: in vivo, Lolium multiflorum
Procedure, shortened: as §1

foxtail, giant [21] = assay: Test A preemergence; type: in vivo, Setaria faberi
Procedure, shortened: as §1

oat, wild [22] = assay: Test A preemergence; type: in vivo, Avena fatua
Procedure, shortened: as §1

sedge, umbrella = assay: Test B flooded paddy test; type: in vivo, Cyperus difformis; settings: 250 g ai/ha, Flood, 13 days, 0 to 100 scale (0 no effect, 100 complete control)
Procedure, shortened: as §2

[23] = 125 g ai/ha, visual injury after 10 days, 0 to 100 scale, 0 is no effect, 100 is complete control
[24] = 500 g ai/ha, 0 to 100 scale (0 no effect, 100 complete control), 10 days

## Cc1ccc(-n2cnc(C(C)(C)C)n2)cc1C(=O)N1C[C@H](C)Oc2c(C)cccc21 [Compound 100]
Blackgrass [1]
  Blackgrass plant response rating: 30
  Plant response rating, Blackgrass: 90
horseweed
  Horseweed plant response rating: 40
  Plant response rating, Horseweed: 70
ryegrass, Italian [2]
  Ryegrass, Italian plant response rating: 50
  Plant response rating, Ryegrass, Italian: 80
Soybean [3]
  Soybean plant response rating: 100
  Plant response rating, Soybean: 100
Kochia [4]
  Kochia plant response rating: 80
  Plant response rating, Kochia: 90
pigweed, palmer [5]
  Pigweed, Palmer plant response rating: 70
  Plant response rating, Pigweed, Palmer: 100
Ragweed [6]
  Ragweed plant response rating: 60
  Plant response rating, Ragweed: 70
Kochia [7]; [23]
  Plant response rating, Kochia: 90
Kochia [7]; [24]
  Plant response rating, Kochia: 100
oat, wild [8]
  Oat, Wild plant response rating: 30
  Plant response rating, Oat, Wild: 70
rice
  Plant response rating, Rice: 0
Corn [9]; [23]
  Plant response rating, Corn: 0
Corn [9]; [24]
  Plant response rating, Corn: 40
galium
  Galium plant response rating: 80
  Plant response rating, Galium: 100
Goosegrass [10]; [23]
  Plant response rating, Goosegrass: 100
Goosegrass [10]; [24]
  Plant response rating, Goosegrass: 100
Wheat [11]
  Wheat plant response rating: 30
  Plant response rating, Wheat: 40
Wheat [12]; [23]
  Plant response rating, Wheat: 50
Wheat [12]; [24]
  Plant response rating, Wheat: 60
Corn [13]
  Corn plant response rating: 70
  Plant response rating, Corn: 70
Soybean [14]; [23]
  Plant response rating, Soybean: 80
Soybean [14]; [24]
  Plant response rating, Soybean: 100
Ragweed [15]; [23]
  Plant response rating, Ragweed: 80
Ragweed [15]; [24]
  Plant response rating, Ragweed: 100
foxtail, giant [16]
  Foxtail, Giant plant response rating: 50
  Plant response rating, Foxtail, Giant: 90
pigweed, palmer [17]; [23]
  Plant response rating, Pigweed, Palmer: 100
pigweed, palmer [17]; [24]
  Plant response rating, Pigweed, Palmer: 100
Goosegrass [18]
  Goosegrass plant response rating: 70
  Plant response rating, Goosegrass: 100
ducksalad
  Plant response rating, Ducksalad: 40
barnyardgrass
  Plant response rating, Barnyardgrass: 0
Blackgrass [19]; [23]
  Plant response rating, Blackgrass: 60
Blackgrass [19]; [24]
  Plant response rating, Blackgrass: 70
ryegrass, Italian [20]; [23]
  Plant response rating, Ryegrass, Italian: 90
ryegrass, Italian [20]; [24]
  Plant response rating, Ryegrass, Italian: 100
foxtail, giant [21]; [23]
  Plant response rating, Foxtail, Giant: 100
foxtail, giant [21]; [24]
  Plant response rating, Foxtail, Giant: 100
oat, wild [22]; [23]
  Plant response rating, Oat, Wild: 40
oat, wild [22]; [24]
  Plant response rating, Oat, Wild: 90
sedge, umbrella
  Plant response rating, Sedge, Umbrella: 55

## CCc1ncn(-c2ccc(CC)c(C(=O)N3C[C@H](C)Oc4c(Cl)cccc43)c2)n1 [Compound 95]
Blackgrass [1]
  Blackgrass plant response rating: 80
  Plant response rating, Blackgrass: 90
horseweed
  Horseweed plant response rating: 0
  Plant response rating, Horseweed: 30
ryegrass, Italian [2]
  Ryegrass, Italian plant response rating: 60
  Plant response rating, Ryegrass, Italian: 100
Soybean [3]
  Soybean plant response rating: 100
  Plant response rating, Soybean: 100
Kochia [4]
  Kochia plant response rating: 80
  Plant response rating, Kochia: 90
pigweed, palmer [5]
  Pigweed, Palmer plant response rating: 50
  Plant response rating, Pigweed, Palmer: 90
Ragweed [6]
  Ragweed plant response rating: 0
  Plant response rating, Ragweed: 50
Kochia [7]; [23]
  Plant response rating, Kochia: 60
Kochia [7]; [24]
  Plant response rating, Kochia: 100
oat, wild [8]
  Oat, Wild plant response rating: 70
  Plant response rating, Oat, Wild: 80
rice
  Plant response rating, Rice: 0
Corn [9]; [23]
  Plant response rating, Corn: 60
Corn [9]; [24]
  Plant response rating, Corn: 100
galium
  Galium plant response rating: 100
  Plant response rating, Galium: 100
Goosegrass [10]; [23]
  Plant response rating, Goosegrass: 100
Goosegrass [10]; [24]
  Plant response rating, Goosegrass: 100
Wheat [11]
  Wheat plant response rating: 40
  Plant response rating, Wheat: 80
Wheat [12]; [23]
  Plant response rating, Wheat: 90
Wheat [12]; [24]
  Plant response rating, Wheat: 90
Corn [13]
  Corn plant response rating: 60
  Plant response rating, Corn: 90
Soybean [14]; [23]
  Plant response rating, Soybean: 50
Soybean [14]; [24]
  Plant response rating, Soybean: 100
Ragweed [15]; [23]
  Plant response rating, Ragweed: 0
Ragweed [15]; [24]
  Plant response rating, Ragweed: 70
foxtail, giant [16]
  Foxtail, Giant plant response rating: 90
  Plant response rating, Foxtail, Giant: 90
pigweed, palmer [17]; [23]
  Plant response rating, Pigweed, Palmer: 90
pigweed, palmer [17]; [24]
  Plant response rating, Pigweed, Palmer: 100
Goosegrass [18]
  Goosegrass plant response rating: 80
  Plant response rating, Goosegrass: 90
ducksalad
  Plant response rating, Ducksalad: 95
barnyardgrass
  Plant response rating, Barnyardgrass: 65
Blackgrass [19]; [23]
  Plant response rating, Blackgrass: 70
Blackgrass [19]; [24]
  Plant response rating, Blackgrass: 80
ryegrass, Italian [20]; [23]
  Plant response rating, Ryegrass, Italian: 100
ryegrass, Italian [20]; [24]
  Plant response rating, Ryegrass, Italian: 100
foxtail, giant [21]; [23]
  Plant response rating, Foxtail, Giant: 100
foxtail, giant [21]; [24]
  Plant response rating, Foxtail, Giant: 100
oat, wild [22]; [23]
  Plant response rating, Oat, Wild: 80
oat, wild [22]; [24]
  Plant response rating, Oat, Wild: 90
sedge, umbrella
  Plant response rating, Sedge, Umbrella: 98
